# Measured values as given in ChEMBL document CHEMBL4393733 (Bioorg Med Chem, 2019).
# Assays:
# [1] = molecular target: Carbonic anhydrase 2 (Homo sapiens, UniProt P00918); assay: Inhibition of human recombinant N-HA-tagged carbonic anhydrase 2 expressed in HEK293T cells using p-nitrophenyl acetate as substrate measured after 30 mins by colorimetric analysis
# [2] = Inhibition of human recombinant N-His-tagged carbonic anhydrase 11 expressed in HEK293T cells using p-nitrophenyl acetate as substrate measured after 30 mins by colorimetric analysis
SMILES,IC50 [1] [µM],IC50 [2] [µM]
O=S(=O)(Oc1ccc(-c2ccc3occc3c2)cc1)c1ccc(F)cc1,0.14,1.6
CCS(=O)(=O)Oc1ccc(-c2ccc3sccc3c2)cc1,1.3,0.14
CCS(=O)(=O)Oc1ccc(-c2ccc3occc3c2)cc1,1.6,0.13
CCCS(=O)(=O)Oc1ccc(-c2ccc3sccc3c2)cc1,0.31,7.55
CS(=O)(=O)Oc1ccc(-c2ccc3occc3c2)cc1,2.13,2.17
NS(=O)(=O)Oc1ccc(-c2ccc3sccc3c2)cc1,1.32,0.24
O=S(=O)(Oc1ccc(-c2ccc3sccc3c2)cc1)c1ccccc1,1.49,2.7
CNS(=O)(=O)Oc1ccc(-c2ccc3occc3c2)cc1,1.04,0.64
Cc1ccc(S(=O)(=O)Oc2ccc(-c3ccc4occc4c3)cc2)cc1,0.5,0.28

# Further compounds by falling IC50 [1], results first:
IC50 [1] [µM],IC50 [2] [µM],SMILES
5.82,2.84,CN(C)S(=O)(=O)Oc1ccc(-c2ccc3sccc3c2)cc1
3.3,1.77,Cc1ccc(S(=O)(=O)Oc2ccc(-c3ccc4sccc4c3)cc2)cc1
2.6,1.11,NS(=O)(=O)Oc1ccc(-c2ccc3occc3c2)cc1
2.1,3.1,O=S(=O)(Oc1ccc(-c2ccc3sccc3c2)cc1)c1ccc(F)cc1
1.62,0.69,CCCS(=O)(=O)Oc1ccc(-c2ccc3occc3c2)cc1
1.5,1.01,CS(=O)(=O)Oc1ccc(-c2ccc3sccc3c2)cc1
1.23,1.71,CN(C)S(=O)(=O)Oc1ccc(-c2ccc3occc3c2)cc1
1.21,0.52,CNS(=O)(=O)Oc1ccc(-c2ccc3sccc3c2)cc1
0.41,0.85,O=S(=O)(Oc1ccc(-c2ccc3occc3c2)cc1)c1ccccc1
